Measured values from article PMC9763021, “Comprehensive Assessment of Biomolecular Interactions of Morpholine-Based Mixed Ligand Cu(II) and Zn(II) Complexes of 2,2′-Bipyridine as Potential Anticancer and SARS-CoV-2 Agents: A Synergistic Experimental and Structure-Based Virtual Screening” (Bioinorganic Chemistry and Applications, 2022).

How the values were obtained:
BSA = BSA (Bos taurus, UniProt P02769); assay: FRET computation, donor (BSA) - acceptor (compound); format: binding, bovine; design: kET (rate of energy transfer): unit not given here; conditions: for J, spectral overlap integral: BSA donor, compound acceptor; for B (brightness of complex-BSA system): free BSA = 6,573.60
[1] = Nitric oxide scavenging assay; format: biochemical; conditions: for % Inhibition nitric oxide: 546 nm
Description: All samples were evaluated for their scavenging ability with the help of UV-visible spectrophotometer at different concentrations of 40, 80, 120, 160, 200, and 240 μM [6, 28]. While performing the antioxidant properties for the DPPH, hydroxyl, superoxide, and nitric oxide radical scavenging, the absorbance at 517, 230, 590, and 546 nm, respectively, was closely observed. In addition, the observed IC50 values of all samples were compared with ascorbic acid.
The diffusible nitric oxide free radical is a crucial chemical mediator, which assists in overcoming diverse chronological human diseases. The NO free radical scavenging potential for all test samples was also carried out at 546 nm. It monitored the alterations in electronic absorption intensity of the nitric oxide radical inhibition outcome concerning the sample concentrations. When the test sample concentration rises, the nitric oxide free inhibition effectiveness also increases. The measured % of nitric oxide radical scavenging capability for all samples at 240 μM was obtained in the subsequent order (ascorbic acid) 72.73 > (1a) 65.47 > (2a) 58.43 > (HL) 51.62.

Staphylococcus aureus = assay: Agar disc diffusion, strain F; format: cell-based; design: (inhibition %): concentration or dose not given beside the values; conditions: for diameter of the clear zone inhibition: control = 6 mm
Description: In-vitro antimicrobial properties were evaluated for all samples by the agar disc diffusion method towards different fungal and bacterial strains. Additionally, the reported inhibition zone values were comparatively analyzed with the standard antifungal drugs ketoconazole and amphotericin B as well as the standard antibiotic medications streptomycin and amikacin.
The current research has a curious focus on the in vitro antimicrobial properties of biological systems because these studies are crucial for developing effective antibacterial and antifungal medications. […] It can also be spelled out based on the chelation theory proposed by Overtone and Tweedy. Chelation theory points out that the partial exchanging of the positive charge of the metal center with donor moieties, and overlap of the ligand orbitals will reduce the greater degree of the metal ion's polarity, which ultimately rises the delocalization of π and d electrons over the full chelated ring system. By raising the size of the metal ion due to the retarding of polarization, chelation may also enhance the complexes' lipophilic characteristics, which further stimulate the lipid membrane permeability and break down the bacteria' enzymes responsible for cell wall formation, therefore slowing down the regular cell processes. By preventing the production of cell walls/proteins/DNA, including by obstructing folate metabolism and the cytoplasmic membrane, antimicrobial drugs frequently either fully eliminate microbes or only prevent their cell growth. Additionally, the samples' mode of action may be employed in disrupting the cell's respiration process by forming an H-bond during the morpholine-fused iminic group coordinated with the active metal center of its components, inhibiting proliferation of the cell. […] The difference in the antimicrobial efficacy of some of the compounds towards various microorganisms influences on the impermeability of the cells of the germs or the diversity of ribosomes of the microbes. The % of the inhibition of all substances is estimated from (45) (Table 9).
(A, B, C, D, and E are represented as gram negative bacteria species Escherichia coli, Salmonella enteric serovar typhi, Salmonella enteric serovar typhi, Pseudomonas aeruginosa, and Shigella flexneri, respectively. F & G are denoted as gram positive bacteria species Staphylococcus aureus and Bacillus cereus. H, I, and J are represented as fungal strains Aspergillus niger, Candida albicans, and Mucor indicus. Standard drugs for bacterial strains: Amikacin & Streptomycin Standard drugs for fungal strains: Ketoconazole and Amphotericin B. [Control (DMSO) = 6 mm].(44) Inhibition %=T–C/T×100, where T and C are represented as the diameter of microbial growth of the sample plates and the control plate (6 mm), respectively. Error limits ±2.5–5.0% (P ≤ 0.05).

Compound | E (efficiency of energy transfer) (BSA) | R0 (Förster radius) (BSA) [nm] | kET (rate of energy transfer) (BSA) | r (donor-acceptor separation) (BSA) [nm] | J, spectral overlap integral (BSA) | B (brightness of complex-BSA system) (BSA) [M⁻¹ cm⁻¹] | % Inhibition nitric oxide ([1]; 40 µM) [%] | % Inhibition nitric oxide ([1]; 80 µM) [%] | % Inhibition nitric oxide ([1]; 120 µM) [%] | % Inhibition nitric oxide ([1]; 160 µM) [%] | % Inhibition nitric oxide ([1]; 200 µM) [%] | % Inhibition nitric oxide ([1]; 240 µM) [%] | (inhibition %) (Staphylococcus aureus) [%] | diameter of the clear zone inhibition (Staphylococcus aureus) [mm] | IC50 [1] [µM]
[O-]c1ccccc1N=Cc1ccc(N2CCOCC2)cc1.[O-]c1ccccc1N=Cc1ccc(N2CCOCC2)cc1.[Zn+2].c1ccc(-c2ccccn2)nc1 [(2a), [Zn(L)2(bpy)]] | 0.5615 | 2.2770 | 10.4206 | 2.1851 | 0.5425 × 10^−14 (LM^−1·cm^3) | 4642.53 | 14.37 | 21.59 | 28.87 | 37.69 | 44.73 | 58.43 | 45 | 11 | –
Oc1ccccc1N=Cc1ccc(N2CCOCC2)cc1 [(HL), 2-(4-morpholinobenzylideneamino)phenol] | 0.3462 | 2.4400 | 5.2957 | 2.7127 | 0.8215 × 10^−14 (LM^−1·cm^3) | 5339.79 | 11.42 | 18.26 | 24.28 | 33.21 | 40.53 | 51.62 | 33 | 09 | –
[Cu+2].[O-]c1ccccc1N=Cc1ccc(N2CCOCC2)cc1.[O-]c1ccccc1N=Cc1ccc(N2CCOCC2)cc1.c1ccc(-c2ccccn2)nc1 [(1a), [Cu(L)2(bpy)]] | 0.5769 | 2.4090 | 13.6340 | 2.2877 | 0.7607 × 10^−14 (LM^−1·cm^3) | 5187.78 | 17.07 | 24.95 | 35.06 | 42.14 | 51.35 | 65.47 | 50 | 12 | 200
